This note sets out measurements from patent US7241797B2, “Method of increasing milk production” (University of Cincinnati, priority 2002, dated 2007).

For test [1], the system named is cultured mammospheres. The test is described as follows: Morphology and morphometry of cultured mammospheres treated with serotonergic agents. Format: cell-based, mouse. The settings on record: for Mammosphere morphology (qualitative): 1 μg·ml−1, replenished each day, 7-day incubation. The method, then:
Qualitative comparison of typical mammospheres in cultures treated with (a) control; (b) 5-HT; (c) methysergide; (d) PCPA. Each of the agents was added to the medium at a concentration of 1 μg·ml^−1 and replenished each day during a 7-day incubation. (e) histogram depicting the median areas (in arbitrary units) of mammospheres sorted by size (n=350, 2 replicate experiments) of control- and methysergide-treated cultures.
In addition to the effects on gene expression shown above, perturbing 5-HT signaling caused morphological changes in mammosphere cultures. Under control conditions the mammospheres were comprised of a boundary layer surrounding an interior lumenal space (FIG. 5a). Qualitatively, mammospheres treated with different serotonergic agents had markedly different structures. […] Those treated with PCPA were very distinctive because the boundary layer was consistently thin, and, there was a very high contrast between the dark boundary and light central space.
We performed a morphometric comparison of control and methysergide-treated mammospheres employing a Macintosh computer using the public domain NIH Image program (developed at the U.S. National Institutes of Health and available on the Internet at http://rsb.info.nih.gov/nih-image/). Threshold was adjusted to automatically outline the mammospheres, and the organoids were sorted into a frequency distribution based on particle sizes. The median size of the methysergide-treated mammospheres was about 40% larger than the control mammospheres (p<0.01; Mann-Whitney U-test; FIG. 5e).
(§1) Primary mouse mammary epithelium was prepared from nulliparous mice by enzymatic digestion and differential trypsinization, modifying the method of Imagawa (Pedchenko, V. K. & Imagawa, W. T. Mammogenic hormones differentially modulate keratinocyte growth factor (KGF)-induced proliferation and KGF receptor expression in cultured mouse mammary gland epithelium. Endocrinology 139,2519-2526 (1998)). Enriched epithelial cells (2×10^5 cells per well) were plated in basement membrane (Matrigel, 0.5 ml/well, BD Biosciences) reconstituted in a 12-well plate so that they formed mammospheres. They were pre-incubated for seven days, and treated with ovine PRL (1 μg/ml) for 2 days. The cell culture experiments were replicated 2-3 times in all cases.

For test [2], the system named is WAP gene expression in cultured mammospheres. The test is described as follows: Milk protein gene expression (RT-PCR) in mammosphere cultures treated with serotonergic agents. The test is classed as cell-based, mouse. The conditions noted are these: cells cultured in 1% fetal serum, WAP constitutively expressed at a low level. The method, then: Primary mouse mammary cultures were treated with PRL, methysergide (Methy.), or 5-HT as noted (+). RT-PCR products for various genes expressed in the mammary gland are shown by the labels at the left margin.
We tested whether 5-HT might have an autocrine/paracrine effect first by examining the expression of various genes in mammosphere cultures (FIG. 4), and then by morphometry (FIG. 5). Using a broad-spectrum 5-HT receptor antagonist methysergide, in combination with PRL, we observed that the expression levels of several mammary gland genes, including whey acidic protein (WAP), glycosylated cell adhesion molecule-1 (GlyCAM-1) and […]. The effects of both 5-HT and methysergide (agonist and antagonist) were tested using cells cultured in 1% fetal serum, wherein the WAP gene is constitutively expressed at a low level. Under these conditions 5-HT suppressed WAP, and methysergide induced WAP.
Primary mouse mammary epithelium was prepared from nulliparous mice by enzymatic digestion and differential trypsinization, modifying the method of Imagawa (Pedchenko, V. K. & Imagawa, W. T. Mammogenic hormones differentially modulate keratinocyte growth factor (KGF)-induced proliferation and KGF receptor expression in cultured mouse mammary gland epithelium. Endocrinology 139,2519-2526 (1998)). […]

The subject of test [3] is lactating dams (mice). The test is described as follows: Milk yield of nursing dams given carbidopa injections (nursing-related weight loss as index of milk yield). The test is classed as in vivo. How it is done: Nursing dams were given 4 injections of carbidopa (1 mg/kg body weight) at 12 h intervals (or control vehicle). After the final injection the pups were removed from the dam for 4 h. At the end of 4 h the dams were weighed and reunited with the pups to nurse for 1 h. After the nursing interval the dams were again weighed and the nursing-related weight losses were analyzed as an index of milk yield (Table 1). The litters of lactating dams (mice) were adjusted to 8 pups on day 1 postpartum. Carbidopa (1 mg/kg in 45% hydroxypropyl-β-cyclodextrin) or control vehicle were injected at approximately 12 h intervals beginning in the evening of postpartum day 3. After 4 injections (morning of day 5) pups were separated from the dams for 4 h. At the end of separation interval, the dams were injected with oxytocin (0.2U) and both the dams and their litters and were weighed. The litters were reunited with the dams for a 1 h nursing interval. The weights of the dams were measured after nursing and the differences in the weights of the dams before and after nursing are reported as milk yield. The percent increases with carbidopa-treatment are shown for statistically significant variables. […] Numbers of animals in treatment groups are in parentheses.

Test [4] relates to TPH mRNA in primary mouse mammary epithelial organoids. The test is described as follows: TPH mRNA induction in primary cultures of mammary epithelial organoids. Format: cell-based. The method, then: (b) TPH induction by milk stasis. Contralateral #3 glands were either open and suckled (+) or sealed with cyanoacrylate glue and unsuckled (−). RT-PCR was performed for TPH and glyceraldehyde-phosphate-dehydrogenase (GPDH), as shown.
(§2) Having established that mammary gland TPH expression was induced in vivo we studied TPH induction in primary cultures of mammary epithelial organoids. These organoids, sometimes referred to as “mammospheres,” secrete milk proteins, fluids and ions vectorially into a closed central lumen when cultured with lactogenic hormones. TPH increased slowly for at least 48 h following addition of PRL to the medium, and the optimum PRL dose was 1 μg/ml (approximately 20 nM) (FIG. 2a). […] First, the time course of TPH mRNA induction was much slower that other genes known to be directly regulated by PRL. Secondly, the in vitro induction was blocked by cycloheximide; and thirdly, the TPH promoter was not induced by PRL in reporter gene assays (unpublished results).
as §1

The subject of test [5] is TPH promoter. The test is described as follows: TPH promoter reporter gene assays. Format: cell-based. The conditions noted are these: unpublished results. The method, then:
as §2

The mark [6] stands for this setting: carbidopa 1 mg/kg, 4 injections.

Turning to `N[C@@H](Cc1ccc(Cl)cc1)C(=O)O` (racemic) [PCPA, p-chloro-phenylalanine], the “Mammosphere morphology (qualitative)” value in test [1] was “easily visible central lumena”.
In the case of `NCCc1c[nH]c2ccc(O)cc12` [5-HT, 5-hydroxytryptamine], in test [2], the “Effect on WAP gene expression” value was “suppressed”. In addition, the “Mammosphere size vs controls (qualitative)” value in test [1] (1 μg·ml−1, 7-day incubation, no quantitative morphometry) is “smaller than the controls”. The “Mammosphere morphology (qualitative)” value in test [1] is on record as “either filled or collapsed, with no obvious lumen”.
As to `C[C@@](Cc1ccc(O)c(O)c1)(NN)C(=O)O` [Carbidopa, S-(−)-α-hydrazino-3,4-dihydroxy-2-methylbenzenepropanoic acid], in test [3] (setting [6]), the “Percent increase in litter weight relative to dam weight with carbidopa treatment vs vehicle control” value is greater than 8.1% and the “Percent increase in milk yield with carbidopa treatment vs vehicle control” value is on record as greater than 16.7%. In addition, in test [3] (carbidopa 1 mg/kg, 4 injections at 12 h intervals, 4 h separation, 1 h nursing, mean ± s.e.m.), the “Milk Yield (difference in dam weight before and after 1 h nursing)” value stood at 2.1 ± 0.1 g. Further, the “Percent increase in litter (pup) weight with carbidopa treatment vs vehicle control” value in test [3] (carbidopa 1 mg/kg, 4 injections, absolute basis) is given as greater than 11.6%. In test [3] (carbidopa 1 mg/kg, 4 injections, mean ± s.e.m.), the “Litter/Dam (litter weight relative to dam weight)” value is 0.93 ± 0.03. Moreover, the “Litter Weight” value in test [3] (litters of 8 pups, carbidopa 1 mg/kg to dam, 4 injections, mean ± s.e.m.) is on record as 36.5 ± 1.8 g.
Turning to `C[C@@H]1C[C@@H]([C@H](O)CC2CC(=O)NC(=O)C2)C(=O)[C@@H](C)C1` [cycloheximide], the “Effect on in vitro induction of TPH by PRL” value in test [4] is given as “blocked”.
As to `CC[C@@H](CO)NC(=O)[C@@H]1C=C2c3cccc4c3c(cn4C)C[C@H]2N(C)C1` [methysergide], the “Effect on WAP gene expression” value in test [2] is “induced”. Further, in test [1] (1 μg·ml−1, 7-day incubation, p<0.01, Mann-Whitney U-test), the “Median size of mammospheres, increase vs control mammospheres” value is given as “about 40%”. Also, the “Mammosphere morphology (qualitative)” value in test [1] is on record as “easily visible central lumena”.

B1: PRL: prolactin, lactogenic hormone; ovine PRL added to the mammosphere cultures (protein, UniProt P01240 31-229, looked up)
Prolactin: TPVCPNGPGNCQVSLRDLFDRAVMVSHYIHNLSSEMFNEFDKRYAQGKGFITMALNSCHTSSLPTPEDKEQAQQTHHEVLMSLILGLLRSWNDPLYHLVTEVRGMKGVPDAILSRAIEIEEENKRLLEGMEMIFGQVIPGAKETEPYPVWSGLPSLQTKDEDARHSAFYNLLHCLRRDSSKIDTYLKLLNCRIIYNNNC
Turning to B1, in test [5], the “Induction of the TPH promoter” value was “not induced”. For the same molecule, in test [4], the “Optimum dose for TPH mRNA induction” value was determined as 1 µg/mL and the “Optimum dose for TPH mRNA induction (molar)” value was “approximately 20 nM”.
